# Data published in US8952024B2, “Herbicidal pyrimidone derivatives” (E I du Pont de Nemours and Company, priority 2009, dated 2015).
# Columns and labels:
# Test in all cases: Test D pre-/postemergence plant response
# Format in all cases: in vivo
# [1] = system: black mustard (Brassica nigra)
# Summary of the method: (§1)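 Pre + post applications; loam/sand soil; solvent + surfactant vehicle; post-em plants 1- to 4-leaf (2–18 cm); greenhouse 14–21 d; visual score 0 (none) to 100 (full control) vs untreated.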
# [2] = system: green foxtail (Setaria viridis)
# Summary of the method: as §1
# [3] = system: field bindweed (Convolvulus arvensis)
# Summary of the method: as §1
# [4] = system: morningglory (pitted morningglory, Ipomoea lacunosa)
# Summary of the method: as §1
# [5] = system: Surinam grass (Brachiaria decumbens)
# Summary of the method: as §1
# [6] = system: mallow (common mallow, Malva sylvestris)
# Summary of the method: as §1
# [7] = system: bluegrass (annual bluegrass, Poa annua)
# Summary of the method: as §1
# [8] = system: large crabgrass (Digitaria sanguinalis)
# Summary of the method: as §1
# [9] = system: chickweed (common chickweed, Stellaria media); settings: Postemergence
# Summary of the method: as §1
# [10] = system: nutsedge (purple nutsedge, Cyperus rotundus)
# Summary of the method: as §1
# [11] = system: barnyardgrass (Echinochloa crus-galli)
# Summary of the method: as §1
# [12] = system: kochia (Kochia scoparia)
# Summary of the method: as §1
# [13] = system: guineagrass (Panicum maximum)
# Summary of the method: as §1
# [14] = system: goosegrass (Eleusine indica)
# Summary of the method: as §1
# [15] = system: itchgrass (Rottboellia cochinchinensis)
# Summary of the method: as §1
# [16] = system: johnsongrass (Sorghum halepense)
# Summary of the method: as §1
# [17] = system: signalgrass (broadleaf signalgrass, Brachiaria platyphylla)
# Summary of the method: as §1
# [18] = system: sowthistle (common sowthistle, Sonchus oleraceous)
# Summary of the method: as §1
# [19] = Postemergence, 31 g ai/ha, scale 0 to 100 (0 no effect, 100 complete control)
# [20] = Postemergence, 62 g ai/ha, scale 0 to 100 (0 no effect, 100 complete control)
# [21] = Postemergence, 125 g ai/ha, scale 0 to 100 (0 no effect, 100 complete control)
# [22] = Postemergence, 16 g ai/ha, scale 0 to 100
# [23] = Preemergence, 16 g ai/ha, scale 0 to 100, 0 no effect, 100 complete control
# [24] = Preemergence, 31 g ai/ha, scale 0 to 100 (0 no effect, 100 complete control)
# [25] = Preemergence, 62 g ai/ha, scale 0 to 100
# [26] = Preemergence, 125 g ai/ha, scale 0 to 100
# [27] = Postemergence, 31 g ai/ha, scale 0 to 100
structure (smiles),measurement,setting,value
O=C1CCCC(O)=C1C(=O)c1cnc(-c2ccccc2)n(CC2CCCO2)c1=O (stereo not drawn) [Compound 59],"Plant response rating, Black Mustard",[1]; [19],40
same,"Plant response rating, Black Mustard",[1]; [20],65
same,"Plant response rating, Black Mustard",[1]; [21],98
same,"Plant response rating, Black Mustard",[1]; [22],10
same,"Plant response rating, Black Mustard",[1]; [23],20
same,"Plant response rating, Black Mustard",[1]; [24],40
same,"Plant response rating, Black Mustard",[1]; [25],60
same,"Plant response rating, Black Mustard",[1]; [26],100
same,"Plant response rating, Foxtail, Green",[2]; [27],5
same,"Plant response rating, Foxtail, Green",[2]; [20],20
same,"Plant response rating, Foxtail, Green",[2]; [21],35
same,"Plant response rating, Foxtail, Green",[2]; [22],0
same,"Plant response rating, Foxtail, Green",[2]; [23],0
same,"Plant response rating, Foxtail, Green",[2]; [24],0
same,"Plant response rating, Foxtail, Green",[2]; [25],0
same,"Plant response rating, Foxtail, Green",[2]; [26],0
same,"Plant response rating, Field Bindweed",[3]; [27],5
same,"Plant response rating, Field Bindweed",[3]; [20],30
same,"Plant response rating, Field Bindweed",[3]; [21],60
same,"Plant response rating, Field Bindweed",[3]; [22],5
same,"Plant response rating, Field Bindweed",[3]; [23],0
same,"Plant response rating, Field Bindweed",[3]; [24],0
same,"Plant response rating, Field Bindweed",[3]; [25],20
same,"Plant response rating, Field Bindweed",[3]; [26],60
same,"Plant response rating, Morningglory",[4]; [27],40
same,"Plant response rating, Morningglory",[4]; [20],50
same,"Plant response rating, Morningglory",[4]; [21],50
same,"Plant response rating, Morningglory",[4]; [22],0
same,"Plant response rating, Morningglory",[4]; [23],0
same,"Plant response rating, Morningglory",[4]; [24],0
same,"Plant response rating, Morningglory",[4]; [25],0
same,"Plant response rating, Morningglory",[4]; [26],80
same,"Plant response rating, Surinam Grass",[5]; [27],35
same,"Plant response rating, Surinam Grass",[5]; [20],50
same,"Plant response rating, Surinam Grass",[5]; [21],60
same,"Plant response rating, Surinam Grass",[5]; [22],30
same,"Plant response rating, Surinam Grass",[5]; [23],5
same,"Plant response rating, Surinam Grass",[5]; [24],90
same,"Plant response rating, Surinam Grass",[5]; [26],100
same,"Plant response rating, Mallow",[6]; [27],5
same,"Plant response rating, Mallow",[6]; [20],5
same,"Plant response rating, Mallow",[6]; [21],40
same,"Plant response rating, Mallow",[6]; [22],0
same,"Plant response rating, Mallow",[6]; [23],0
same,"Plant response rating, Mallow",[6]; [24],65
same,"Plant response rating, Mallow",[6]; [25],65
same,"Plant response rating, Mallow",[6]; [26],65
same,"Plant response rating, Bluegrass",[7]; [19],0
same,"Plant response rating, Bluegrass",[7]; [20],0
same,"Plant response rating, Bluegrass",[7]; [21],5
same,"Plant response rating, Bluegrass",[7]; [22],0
same,"Plant response rating, Bluegrass",[7]; [23],0
same,"Plant response rating, Bluegrass",[7]; [24],0
same,"Plant response rating, Bluegrass",[7]; [25],15
same,"Plant response rating, Bluegrass",[7]; [26],30
same,"Plant response rating, Crabgrass, Large",[8]; [27],35
same,"Plant response rating, Crabgrass, Large",[8]; [20],50
same,"Plant response rating, Crabgrass, Large",[8]; [21],70
same,"Plant response rating, Crabgrass, Large",[8]; [22],35
same,"Plant response rating, Crabgrass, Large",[8]; [23],0
same,"Plant response rating, Crabgrass, Large",[8]; [24],35
same,"Plant response rating, Crabgrass, Large",[8]; [25],35
same,"Plant response rating, Crabgrass, Large",[8]; [26],65
same,"Plant response rating, Chickweed","[9]; 31 g ai/ha, scale 0 to 100",70
same,"Plant response rating, Chickweed","[9]; 62 g ai/ha, scale 0 to 100 (0 no effect, 100 complete control)",70
same,"Plant response rating, Nutsedge, Purple",[10]; [27],0
same,"Plant response rating, Nutsedge, Purple",[10]; [20],20
same,"Plant response rating, Nutsedge, Purple",[10]; [21],25
same,"Plant response rating, Nutsedge, Purple",[10]; [22],0
same,"Plant response rating, Nutsedge, Purple",[10]; [23],0
same,"Plant response rating, Nutsedge, Purple",[10]; [24],20
same,"Plant response rating, Nutsedge, Purple",[10]; [25],20
same,"Plant response rating, Nutsedge, Purple",[10]; [26],80
same,"Plant response rating, Barnyardgrass",[11]; [19],60
same,"Plant response rating, Barnyardgrass",[11]; [20],60
same,"Plant response rating, Barnyardgrass",[11]; [21],75
same,"Plant response rating, Barnyardgrass",[11]; [22],40
same,"Plant response rating, Barnyardgrass",[11]; [23],0
same,"Plant response rating, Barnyardgrass",[11]; [24],0
same,"Plant response rating, Barnyardgrass",[11]; [25],0
same,"Plant response rating, Barnyardgrass",[11]; [26],10
same,"Plant response rating, Kochia",[12]; [27],5
same,"Plant response rating, Kochia",[12]; [20],20
same,"Plant response rating, Kochia",[12]; [21],50
same,"Plant response rating, Kochia",[12]; [22],5
same,"Plant response rating, Kochia",[12]; [23],0
same,"Plant response rating, Kochia",[12]; [24],0
same,"Plant response rating, Kochia",[12]; [25],0
same,"Plant response rating, Kochia",[12]; [26],0
same,"Plant response rating, Guineagrass",[13]; [27],10
same,"Plant response rating, Guineagrass",[13]; [20],20
same,"Plant response rating, Guineagrass",[13]; [21],20
same,"Plant response rating, Guineagrass",[13]; [22],10
same,"Plant response rating, Guineagrass",[13]; [23],0
same,"Plant response rating, Guineagrass",[13]; [24],0
same,"Plant response rating, Guineagrass",[13]; [25],0
same,"Plant response rating, Guineagrass",[13]; [26],0
same,"Plant response rating, Goosegrass",[14]; [27],20
same,"Plant response rating, Goosegrass",[14]; [20],50
same,"Plant response rating, Goosegrass",[14]; [21],65
same,"Plant response rating, Goosegrass",[14]; [22],20
same,"Plant response rating, Goosegrass",[14]; [23],0
same,"Plant response rating, Goosegrass",[14]; [24],5
same,"Plant response rating, Goosegrass",[14]; [25],20
same,"Plant response rating, Goosegrass",[14]; [26],80
same,"Plant response rating, Itchgrass",[15]; [27],15
same,"Plant response rating, Itchgrass",[15]; [20],15
same,"Plant response rating, Itchgrass",[15]; [21],75
same,"Plant response rating, Itchgrass",[15]; [22],0
same,"Plant response rating, Itchgrass",[15]; [23],0
same,"Plant response rating, Itchgrass",[15]; [24],0
same,"Plant response rating, Itchgrass",[15]; [25],0
same,"Plant response rating, Itchgrass",[15]; [26],20
same,"Plant response rating, Johnsongrass",[16]; [27],35
same,"Plant response rating, Johnsongrass",[16]; [20],40
same,"Plant response rating, Johnsongrass",[16]; [21],60
same,"Plant response rating, Johnsongrass",[16]; [22],30
same,"Plant response rating, Johnsongrass",[16]; [23],0
same,"Plant response rating, Johnsongrass",[16]; [24],0
same,"Plant response rating, Johnsongrass",[16]; [25],10
same,"Plant response rating, Johnsongrass",[16]; [26],35
same,"Plant response rating, Signalgrass",[17]; [27],5
same,"Plant response rating, Signalgrass",[17]; [20],10
same,"Plant response rating, Signalgrass",[17]; [21],20
same,"Plant response rating, Signalgrass",[17]; [22],5
same,"Plant response rating, Signalgrass",[17]; [23],0
same,"Plant response rating, Signalgrass",[17]; [24],0
same,"Plant response rating, Signalgrass",[17]; [26],5
same,"Plant response rating, Sowthistle",[18]; [27],100
same,"Plant response rating, Sowthistle",[18]; [20],100
same,"Plant response rating, Sowthistle",[18]; [21],100
same,"Plant response rating, Sowthistle",[18]; [22],70
same,"Plant response rating, Sowthistle",[18]; [23],0
same,"Plant response rating, Sowthistle",[18]; [24],95
same,"Plant response rating, Sowthistle",[18]; [26],100
